Reference: US20220202801A1, “USE OF COMPOUND IN PREPARATION OF DRUG FOR TREATING ATHEROSCLEROSIS” (GenEros Biopharma Ltd., priority 2019, published 2022)
“Also recorded” adds a separate entry of the source.

What was measured:
ApoE knockout mice = experiment: Four blood lipids in serum of ApoE knockout mice (Example 1); type: in vivo; conditions: for regulation on blood lipid levels (overall): Example 1, overall; for HDL-C / LDL-C / TC / TG: serum
Excerpt: Methods: SPF grade C57BL/6 ApoE −/−model mice were provided by Guangdong Medical Experimental Animal Center, laboratory animal production license No. SOCK (Guangdong) 2013-0002. Laboratory animal quality certificate number: 44007200048196). Mice were half male and half female, aged 8 to 12 weeks, and 72 animals in total. After four weeks of housing in a SPF-level animal facility, animals with less body weights were disposed. A total of 64 animals were randomly divided into 8 groups, 8 in each group, fed with 10% high-fat food, and received with different treatments. Animals were observed and administered with the medicines by gavage once daily. The body weights were measured once a week and continued for 58 days. […] The test sample was dissolved in dimethyl sulfoxide solution and prepared with 30% PEG300.
At the end of the experiment, animals were anesthetized with pentobarbital sodium. Blood was collected from the orbital venous plexus, and centrifuged at 3000 r/min at a low temperature for 10 min to separate the serum. The levels of total cholesterol TC, triglyceride TG, high-density lipoprotein HDL-C, and low-density lipoprotein LDL-C were measured, and the remaining serum was stored in a refrigerator at −80° C.
Statistical analysis: Data were expressed as the mean plus or minus the standard deviation (x± s), and analyzed by SPSS21.0 statistical software. […] The level of test is α=0.05.

[1] = system: atherosclerosis model induced by high-fat diet in ApoE knockout mice; experiment: Ratio of atherosclerotic plaque area to total inner wall area of the aorta (En-Face, oil red; Example 2); type: in vivo
Excerpt: Methods: A total of 130 SPF grade C57BL/6 ApoE −/− model male mice aged 8 weeks were purchased from Charles River Laboratories (Beijing, China) (animal license number: SCXK (Beijing) 2016-0001, animal qualification certificate No.: 11400700331337). After one week of acclimatization in a SPF-grade animal facility, the animals with less weights were discarded and the rest was randomly divided into 11 groups, with 8 animals in each group. Except for the healthy control group, the rest were fed with 10% high-fat food (the first day of the high-fat diet was recorded as D1). Starting from the 8th week of the high-fat diet, each group of animals was orally given solvents or corresponding drugs, and the volume of administration was 10 ml/kg, once a day for 8 weeks. Animals were observed and administered by gavage once a day and the body weight were measured once a week for 56 days. […] The store solution of the test samples was dissolved in dimethyl sulfoxide solution and prepared with 30% PEG300.
Immediately after blood was taken from the heart, it was perfused through the left ventricle with 20 ml of normal saline. After bloodletting, the heart and aorta (from the aortic arch to the iliac artery) were isolated. The isolated artery was cut longitudinally from the aortic arch to the iliac artery, fixed in 4% paraformaldehyde for 30 minutes, synchronized with 60% isopropanol for 10 minutes, stained in 60% oil red for 30 minutes, and washed by 60% isopropanol 3 times, 5 minutes each time. Finally, the colored aorta was washed with deionized water and photographed. The proportion of the red plaque area was measured by Image Pro Plus 6.0 (Media Cybernetics, MD, US). The heart samples were fixed in 4% paraformaldehyde solution overnight and then placed in sucrose solution for dehydration. Then, it was embedded with OCT (Sakura, Japan) under a stereo microscope and made into 7 μm frozen sections. After HE staining, the slices were used for routine pathological examination. The outflow tract images were collected under an optical microscope at 4* magnification, and 4*, 10*, 20* and 40* magnification eyepieces were used for high-quality morphological observation. The detection standard referred to the histological classification standard of human atherosclerosis disease.
Evaluate the effect of different therapeutic drugs by the ratio of the area of atherosclerotic plaque to the total area of the inner wall of the aortic vessel (En-Face)
We adopted the widely accepted standard for the severity of arteriosclerosis in animal models, and analyzed the area of all plaques on the inner wall of the aorta. […] FIGS. 46A and 46B are histograms of the ratios of plaque area on the inner wall of the aorta in each treatment group. The values in FIGS. 46A and 46B are the ratios of plaques to the total area of the inner wall in each group, and the error is standard error±SEM. The statistical significance analysis is as follows: ***P<0.001 compared with the normal control group; #P<0.05 compared with the vehicle group; ##P<0.01, ###P<0.001, compared with the vehicle group through one-way ANOVA Dunnett's test; & represents P<0.05, compared with the vehicle group by t test.

[2] = half male and female, 2 mg/kg body weight
[3] = half male and female, 5 mg/kg body weight
[4] = half male and female, 5 mg/kg body weight, 5 mg/kg
[5] = half male and female, 10 mg/kg body weight
[6] = ♀, 2 mg/kg gavage QD, 58 days, 2 mg/kg
[7] = ♀, 2 mg/kg gavage QD, 58 days, listed as Nib1, 2 mg/kg
[8] = ♀, 10 mg/kg gavage QD, 58 days, 10 mg/kg
[9] = ♀, 10 mg/kg gavage QD, 58 days, listed as Nib1, 10 mg/kg
[10] = half male and female, 1 mg/kg body weight
[11] = ♂, 5 mg/kg gavage QD, 58 days, 5 mg/kg
[12] = ♂, 5 mg/kg gavage QD, 58 days, listed as sample B, 5 mg/kg

O=c1[nH]c2ccccc2n1C1CCN(CCCC(c2ccc(F)cc2)c2ccc(F)cc2)CC1 [Sample A]
regulation on blood lipid levels (overall) (ApoE knockout mice): have the effect of improving blood lipids | HDL-C (ApoE knockout mice; [2]): 1.80 ± 0.62 mmol/L | LDL-C (ApoE knockout mice; [2]): 6.23 ± 2.86 mmol/L | TC (ApoE knockout mice; [2]): 19.86 ± 6.92 mmol/L | TG (ApoE knockout mice; [2]): 1.18 ± 0.70 mmol/L | LDL-C (ApoE knockout mice; [3]): 6.09 ± 2.12 mmol/L | TC (ApoE knockout mice; [3]): 20.87 ± 6.13 mmol/L | TG (ApoE knockout mice; [3]): 0.82 ± 0.17 mmol/L | HDL-C (ApoE knockout mice; [4]): 1.63 ± 0.28 mmol/L | HDL-C (ApoE knockout mice; half male and female, 5 mg/kg body weight, listed as sample A, 5 mg/kg): lower | LDL-C (ApoE knockout mice; [5]): 5.82 ± 2.13 mmol/L | TC (ApoE knockout mice; [5]): 19.85 ± 6.26 mmol/L | TG (ApoE knockout mice; [5]): 0.89 ± 0.20 mmol/L | HDL-C (ApoE knockout mice; half male and female, 10 mg/kg body weight, 10 mg/kg): 1.62 ± 0.35 mmol/L | HDL-C (ApoE knockout mice; half male and female, 10 mg/kg body weight, listed as sample A, 10 mg/kg): lower | TG (ApoE knockout mice; ♀, 2 mg/kg gavage QD, 58 days): 0.86 ± 0.16 mmol/L | LDL-C (ApoE knockout mice; [6]): 3.86 ± 0.95 mmol/L | TC (ApoE knockout mice; [6]): 13.88 ± 1.77 mmol/L | LDL-C (ApoE knockout mice; [7]): decreased | TC (ApoE knockout mice; [7]): decreased | LDL-C (ApoE knockout mice; ♀, 5 mg/kg gavage QD, 58 days): 4.30 ± 0.39 mmol/L | TC (ApoE knockout mice; ♀, 5 mg/kg gavage QD, 58 days): 15.41 ± 1.32 mmol/L | TG (ApoE knockout mice; ♀, 5 mg/kg gavage QD, 58 days): 0.70 ± 0.11 mmol/L | TG (ApoE knockout mice; ♀, 10 mg/kg gavage QD, 58 days): 0.76 ± 0.07 mmol/L | LDL-C (ApoE knockout mice; [8]): 3.86 ± 0.38 mmol/L | TC (ApoE knockout mice; [8]): 14.07 ± 0.64 mmol/L | LDL-C (ApoE knockout mice; [9]): decreased | TC (ApoE knockout mice; [9]): decreased | HDL-C (ApoE knockout mice; ♂, 2 mg/kg gavage QD, 58 days): 2.26 ± 0.54 mmol/L | LDL-C (ApoE knockout mice; ♂, 2 mg/kg gavage QD, 58 days): 8.60 ± 1.79 mmol/L | TC (ApoE knockout mice; ♂, 2 mg/kg gavage QD, 58 days): 25.84 ± 3.63 mmol/L | TG (ApoE knockout mice; ♂, 2 mg/kg gavage QD, 58 days): 1.51 ± 0.92 mmol/L | HDL-C (ApoE knockout mice; ♂, 5 mg/kg gavage QD, 58 days): 1.83 ± 0.24 mmol/L | LDL-C (ApoE knockout mice; ♂, 5 mg/kg gavage QD, 58 days): 7.87 ± 1.38 mmol/L | TC (ApoE knockout mice; ♂, 5 mg/kg gavage QD, 58 days): 26.34 ± 2.50 mmol/L | TG (ApoE knockout mice; ♂, 5 mg/kg gavage QD, 58 days): 0.94 ± 0.15 mmol/L | HDL-C (ApoE knockout mice; ♂, 10 mg/kg gavage QD, 58 days): 1.92 ± 0.18 mmol/L | LDL-C (ApoE knockout mice; ♂, 10 mg/kg gavage QD, 58 days): 7.78 ± 0.40 mmol/L | TC (ApoE knockout mice; ♂, 10 mg/kg gavage QD, 58 days): 25.64 ± 1.32 mmol/L | TG (ApoE knockout mice; ♂, 10 mg/kg gavage QD, 58 days): 1.02 ± 0.22 mmol/L

O=C(N/N=C/c1coc2ccccc2c1=O)c1cccnc1 [Sample B]
Mean of Plaque Ratio (plaque area to total inner wall area of aorta) ([1]; 2 mpk PO QD 8 weeks, high-fat diet): 11.22% | symptoms of atherosclerosis under therapeutic intervention (mainly plaque area ratio) ([1]; different doses, Example 2): significantly alleviate the symptoms of atherosclerosis | regulation on blood lipid levels (overall) (ApoE knockout mice): have the effect of improving blood lipids | HDL-C (ApoE knockout mice; [10]): 1.75 ± 0.69 mmol/L | LDL-C (ApoE knockout mice; [10]): 6.19 ± 2.64 mmol/L | TC (ApoE knockout mice; [10]): 19.56 ± 5.66 mmol/L | TG (ApoE knockout mice; [10]): 0.91 ± 0.69 mmol/L | HDL-C (ApoE knockout mice; [2]): 1.68 ± 0.39 mmol/L | LDL-C (ApoE knockout mice; [2]): 5.71 ± 1.80 mmol/L | TC (ApoE knockout mice; [2]): 19.01 ± 4.64 mmol/L | TG (ApoE knockout mice; [2]): 0.81 ± 0.30 mmol/L | HDL-C (ApoE knockout mice; [3]): 1.71 ± 0.45 mmol/L | LDL-C (ApoE knockout mice; [3]): 5.96 ± 2.17 mmol/L | TC (ApoE knockout mice; [3]): 19.76 ± 5.49 mmol/L | TG (ApoE knockout mice; [4]): 0.74 ± 0.35 mmol/L | TG (ApoE knockout mice; half male and female, 5 mg/kg body weight, listed as sample B, 5 mg/kg): lower; also recorded: decreased | LDL-C (ApoE knockout mice; ♀, 1 mg/kg gavage QD, 58 days): 4.32 ± 0.59 mmol/L | TC (ApoE knockout mice; ♀, 1 mg/kg gavage QD, 58 days): 15.50 ± 2.01 mmol/L | TG (ApoE knockout mice; ♀, 1 mg/kg gavage QD, 58 days): 0.57 ± 0.08 mmol/L | HDL-C (ApoE knockout mice; ♀, 1 mg/kg gavage QD, 58 days, 1 mg/kg): 1.32 ± 0.18 mmol/L | HDL-C (ApoE knockout mice; ♀, 1 mg/kg gavage QD, 58 days, listed as sample B, 1 mg/kg): lower | LDL-C (ApoE knockout mice; ♀, 2 mg/kg gavage QD, 58 days): 4.40 ± 0.96 mmol/L | TC (ApoE knockout mice; ♀, 2 mg/kg gavage QD, 58 days): 15.49 ± 2.98 mmol/L | TG (ApoE knockout mice; ♀, 2 mg/kg gavage QD, 58 days): 0.58 ± 0.10 mmol/L | HDL-C (ApoE knockout mice; [6]): 1.36 ± 0.16 mmol/L | HDL-C (ApoE knockout mice; ♀, 2 mg/kg gavage QD, 58 days, listed as sample B, 2 mg/kg): lower | LDL-C (ApoE knockout mice; ♀, 5 mg/kg gavage QD, 58 days): 4.61 ± 0.56 mmol/L | TC (ApoE knockout mice; ♀, 5 mg/kg gavage QD, 58 days): 16.21 ± 1.98 mmol/L | TG (ApoE knockout mice; ♀, 5 mg/kg gavage QD, 58 days): 0.65 ± 0.24 mmol/L | HDL-C (ApoE knockout mice; ♀, 5 mg/kg gavage QD, 58 days, 5 mg/kg): 1.38 ± 0.08 mmol/L | HDL-C (ApoE knockout mice; ♀, 5 mg/kg gavage QD, 58 days, listed as sample B, 5 mg/kg): lower | HDL-C (ApoE knockout mice; ♂, 1 mg/kg gavage QD, 58 days): 2.18 ± 0.75 mmol/L | LDL-C (ApoE knockout mice; ♂, 1 mg/kg gavage QD, 58 days): 8.07 ± 2.56 mmol/L | TC (ApoE knockout mice; ♂, 1 mg/kg gavage QD, 58 days): 23.63 ± 5.16 mmol/L | TG (ApoE knockout mice; ♂, 1 mg/kg gavage QD, 58 days): 1.26 ± 0.89 mmol/L | LDL-C (ApoE knockout mice; ♂, 2 mg/kg gavage QD, 58 days): 7.03 ± 1.41 mmol/L | TC (ApoE knockout mice; ♂, 2 mg/kg gavage QD, 58 days): 22.54 ± 2.88 mmol/L | TG (ApoE knockout mice; ♂, 2 mg/kg gavage QD, 58 days): 1.05 ± 0.25 mmol/L | HDL-C (ApoE knockout mice; ♂, 2 mg/kg gavage QD, 58 days, 2 mg/kg): 2.00 ± 0.23 mmol/L | HDL-C (ApoE knockout mice; ♂, 2 mg/kg gavage QD, 58 days, listed as sample B, 2 mg/kg): lower | LDL-C (ApoE knockout mice; ♂, 5 mg/kg gavage QD, 58 days): 7.31 ± 2.41 mmol/L | TC (ApoE knockout mice; ♂, 5 mg/kg gavage QD, 58 days): 23.32 ± 5.72 mmol/L | HDL-C (ApoE knockout mice; [11]): 2.04 ± 0.42 mmol/L | TG (ApoE knockout mice; [11]): 0.83 ± 0.46 mmol/L | HDL-C (ApoE knockout mice; [12]): lower | TG (ApoE knockout mice; [12]): lower
